ChEMBL document CHEMBL4334464, “From Phenylthiazoles to Phenylpyrazoles: Broadening the Antibacterial Spectrum toward Carbapenem-Resistant Bacteria” (J Med Chem, 2019)
Values after ≈ are worked out from the molar mass of the structure shown. Active and inactive are the calls of the source. The calls are words filed in the database; no cut-off is given here.

These molecules were tested on Escherichia coli (assay: Ratio of MBC to MIC for Escherichia coli ATCC 1411 clinical isolates). Settings: not given.
Type: functional
In the case of `CCCCCC#Cc1ccc(-n2ncc(/C(C)=N/NC3=NCCN3)c2C)cc1`, the Ratio was “>=1”.

Each molecule was assayed on Pseudomonas aeruginosa (assay: Antibacterial activity against Pseudomonas aeruginosa ATCC 15442 clinical isolates after 18 to 20 hrs in aerobic condition by CLSI-based broth microdilution assay). Settings: not given.
Type: functional
For `CCCCCC#Cc1ccc(-n2ncc(/C(C)=N/NC3=NCCN3)c2C)cc1`, the MIC was greater than 128 µg/mL.

The molecules below were run on Escherichia coli (assay: Ratio of MBC to MIC for Escherichia coli BW25113 clinical isolates). Settings: not given.
Type: functional
For `CCCCCC#Cc1ccc(-n2ncc(/C(C)=N/NC3=NCCN3)c2C)cc1`, the Ratio was “>=1”.

Each molecule was assayed on Streptococcus pneumoniae (assay: Ratio of MBC to MIC for […] Streptococcus pneumoniae ATCC 700677 clinical isolates). Settings: not given.
Type: functional
Molecule `CCCCCC#Cc1ccc(-n2ncc(/C(C)=N/NC3=NCCN3)c2C)cc1` has a Ratio of less than 3.

What follows are molecules tested on Escherichia coli (assay: Antimicrobial activity against Escherichia coli JW55031 harboring deltatolC mutant after 18 to 20 hrs in aerobic condition by CLSI protocol based broth microdilution assay). Settings: not given.
Type: functional
Molecule `CCCCCC#Cc1ccc(-n2ncc(/C(C)=N/NC3=NCCN3)c2C)cc1` has an MIC of 2 µg/mL (≈ 5.31 µM).

Each molecule was assayed on Listeria monocytogenes (assay: Ratio of MBC to MIC for Listeria monocytogenes ATCC 19111 clinical isolates). Settings: not given.
Type: functional
Molecule `CCCCCC#Cc1ccc(-n2ncc(/C(C)=N/NC3=NCCN3)c2C)cc1` has a Ratio of less than 3.

These molecules were tested on Enterococcus faecalis (assay: Ratio of MBC to MIC for vancomycin-resistant Enterococcus faecalis ATCC 51299 clinical isolates). Settings: not given.
Type: functional
In the case of `CCCCCC#Cc1ccc(-n2ncc(/C(C)=N/NC3=NCCN3)c2C)cc1`, the Ratio was less than 3.

These molecules were tested on Streptococcus pneumoniae (assay: Antibacterial activity against cephalosporin-resistant Streptococcus pneumoniae ATCC 51916 clinical isolates after 18 to 20 hrs by CLSI-based broth microdilution assay). Settings: not given.
Type: functional
`CCCCCC#Cc1ccc(-n2ncc(/C(C)=N/NC3=NCCN3)c2C)cc1` gave an MIC of 4 µg/mL (≈ 10.6 µM).

Each molecule was assayed on Clostridioides difficile (assay: Ratio of MBC to MIC for Clostridium difficile ATCC BAA 1870). Settings: not given.
Type: functional
For `CCCCCC#Cc1ccc(-n2ncc(/C(C)=N/NC3=NCCN3)c2C)cc1`, the Ratio was less than 3.

The molecules below were run on Staphylococcus aureus (assay: Antibacterial activity against methicillin-resistant Staphylococcus aureus NRS384-USA300 clinical isolates after 18 to 20 hrs in aerobic condition by CLSI protocol based broth microdilution assay). Settings: not given.
Type: functional
`CCCCCC#Cc1ccc(-n2ncc(/C(C)=N/NC3=NCCN3)c2C)cc1` showed an MIC of 2 µg/mL (≈ 5.31 µM).

The molecules below were run on Acinetobacter baumannii (assay: Antibacterial activity against Acinetobacter baumannii NR 17786 clinical isolates after 18 to 20 hrs in aerobic condition by CLSI-based broth microdilution assay). Settings: not given.
Type: functional
`CCCCCC#Cc1ccc(-n2ncc(/C(C)=N/NC3=NCCN3)c2C)cc1` gave an MIC greater than 128 µg/mL.

These molecules were tested against T1, Ditrans,polycis-undecaprenyl-diphosphate synthase ((2E,6E)-farnesyl-diphosphate specific) (Escherichia coli (strain K12)) (UniProt P60472) (assay: Inhibition of Escherichia coli UPPS using FPP/IPP as substrate preincubated for 30 mins followed by substrates addition and measured after 30 mins by malachite green reagent based assay). Settings: not given.
T1 sequence (whole entry): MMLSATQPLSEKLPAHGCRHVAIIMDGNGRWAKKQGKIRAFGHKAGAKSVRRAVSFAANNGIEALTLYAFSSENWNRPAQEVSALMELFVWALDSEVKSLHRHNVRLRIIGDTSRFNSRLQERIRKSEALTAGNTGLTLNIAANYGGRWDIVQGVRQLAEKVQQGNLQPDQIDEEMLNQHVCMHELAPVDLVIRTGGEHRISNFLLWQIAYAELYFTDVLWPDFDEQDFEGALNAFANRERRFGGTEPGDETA
For `CCCCCC#Cc1ccc(-n2ncc(/C(C)=N/NC3=NCCN3)c2C)cc1`, the inhibition was “inactive”.

Each molecule was assayed on Escherichia coli (assay: microbe, parasite or virus in culture). Settings: ATCC 1411.
Description: Antibacterial activity against Escherichia coli ATCC 1411 clinical isolates after 18 to 20 hrs in aerobic condition by CLSI-based broth microdilution assay
`CCCCCC#Cc1ccc(-n2ncc(/C(C)=N/NC3=NCCN3)c2C)cc1` showed an MIC greater than 128 µg/mL.

These molecules were tested on Pseudomonas aeruginosa (assay: Ratio of MBC to MIC for Pseudomonas aeruginosa ATCC 9027 clinical isolates). Settings: not given.
Type: functional
For `CCCCCC#Cc1ccc(-n2ncc(/C(C)=N/NC3=NCCN3)c2C)cc1`, the Ratio was “>=1”.

The molecules below were run on Pseudomonas aeruginosa (assay: microbe, parasite or virus in culture). Settings: ATCC 25619.
Description: Antibacterial activity against Pseudomonas aeruginosa ATCC 25619 clinical isolates after 18 to 20 hrs in aerobic condition by CLSI-based broth microdilution assay
In the case of `CCCCCC#Cc1ccc(-n2ncc(/C(C)=N/NC3=NCCN3)c2C)cc1`, the MIC was greater than 128 µg/mL.

These molecules were tested on Clostridioides difficile (assay: Antibacterial activity against Clostridium difficile ATCC BAA 1870 incubated for 48 hrs in anaerobic condition by CLSI-based broth microdilution assay). Settings: ATCC BAA 1870, 48 h.
Type: functional
For `CCCCCC#Cc1ccc(-n2ncc(/C(C)=N/NC3=NCCN3)c2C)cc1`, the MIC was 4 µg/mL (≈ 10.6 µM).

What follows are molecules tested on Klebsiella pneumoniae (assay: Antibacterial activity against Klebsiella pneumoniae BAA-1706 clinical isolates after 18 to 20 hrs in aerobic condition by CLSI-based broth microdilution assay). Settings: not given.
Type: functional
In the case of `CCCCCC#Cc1ccc(-n2ncc(/C(C)=N/NC3=NCCN3)c2C)cc1`, the MIC was greater than 128 µg/mL.

The molecules below were run on Salmonella enterica (assay: Antibacterial activity against Salmonella enterica NR-170 clinical isolates after 18 to 20 hrs in aerobic condition by CLSI-based broth microdilution assay). Settings: not given.
Type: functional
`CCCCCC#Cc1ccc(-n2ncc(/C(C)=N/NC3=NCCN3)c2C)cc1` gave an MIC greater than 128 µg/mL.

These molecules were tested on Enterococcus faecium (assay: Ratio of MBC to MIC for vancomycin-resistant Enterococcus faecium ATCC 700221 clinical isolates). Settings: not given.
Type: functional
In the case of `CCCCCC#Cc1ccc(-n2ncc(/C(C)=N/NC3=NCCN3)c2C)cc1`, the Ratio was less than 3.

What follows are molecules tested on Salmonella enteritidis (assay: Ratio of MBC to MIC for Salmonella enteritidis ATCC 14028 clinical isolates). Settings: not given.
Type: functional, Salmonella enterica subsp. enterica serovar Enteritidis
`CCCCCC#Cc1ccc(-n2ncc(/C(C)=N/NC3=NCCN3)c2C)cc1` was tested, and the Ratio was “>=1”.

The molecules below were run on Staphylococcus aureus (assay: Bactericidal activity against methicillin-resistant Staphylococcus aureus NRS123-USA400 clinical isolates at 5 times MIC incubated over 24 hrs followed by replating on tryptic soy agar plate and further incubated for 18 to 20 hrs by time kill assay). Settings: not given.
Type: functional, organism-based
`CCCCCC#Cc1ccc(-n2ncc(/C(C)=N/NC3=NCCN3)c2C)cc1` was tested, and the Activity was “Active”.

The molecules below were run on Streptococcus pneumoniae (assay: Antibacterial activity against methicillin-resistant Streptococcus pneumoniae ATCC 700677 clinical isolates after 18 to 20 hrs by CLSI-based broth microdilution assay). Settings: not given.
Type: functional
`CCCCCC#Cc1ccc(-n2ncc(/C(C)=N/NC3=NCCN3)c2C)cc1` was tested, and the MIC was 2 µg/mL (≈ 5.31 µM).

The molecules below were run on Staphylococcus aureus (assay: Antibacterial activity against Methicillin-resistant Staphylococcus aureus NRS123-USA400 clinical isolates after 18 to 20 hrs in aerobic condition by CLSI protocol based broth microdilution assay). Settings: not given.
Type: functional
`CCCCCC#Cc1ccc(-n2ncc(/C(C)=N/NC3=NCCN3)c2C)cc1` gave an MIC of 4 µg/mL (≈ 10.6 µM).

Each molecule was assayed on Acinetobacter baumannii (assay: microbe, parasite or virus in culture). Settings: ATCC BAA 1747.
Description: Antibacterial activity against Acinetobacter baumannii ATCC BAA 1747 after 18 to 20 hrs in aerobic condition by CLSI-based broth microdilution assay
Molecule `CCCCCC#Cc1ccc(-n2ncc(/C(C)=N/NC3=NCCN3)c2C)cc1` has an MIC greater than 128 µg/mL.

Each molecule was assayed on Escherichia coli (assay: Antibacterial activity against Escherichia coli ATCC 25922 clinical isolates after 18 to 20 hrs in aerobic condition by CLSI-based broth microdilution assay). Settings: not given.
Type: functional
With `CCCCCC#Cc1ccc(-n2ncc(/C(C)=N/NC3=NCCN3)c2C)cc1` the MIC was greater than 128 µg/mL.

The molecules below were run on Acinetobacter baumannii (assay: Ratio of MBC to MIC for Acinetobacter baumannii ATCC BAA 1141 clinical isolates). Settings: not given.
Type: functional
With `CCCCCC#Cc1ccc(-n2ncc(/C(C)=N/NC3=NCCN3)c2C)cc1` the Ratio was “>=1”.

These molecules were tested on Staphylococcus epidermidis (assay: Ratio of MBC to MIC for Staphylococcus epidermidis NRS101 clinical isolates). Settings: not given.
Type: functional
For `CCCCCC#Cc1ccc(-n2ncc(/C(C)=N/NC3=NCCN3)c2C)cc1`, the Ratio was less than 3.

These molecules were tested on Staphylococcus aureus (assay: Antibacterial activity against Methicillin-sensitive Staphylococcus aureus NRS107 clinical isolates after 18 to 20 hrs in aerobic condition by CLSI protocol based broth microdilution assay). Settings: not given.
Type: functional
Work on `CCCCCC#Cc1ccc(-n2ncc(/C(C)=N/NC3=NCCN3)c2C)cc1` yielded an MIC of 4 µg/mL (≈ 10.6 µM).
